We go through five compounds from US11390603B2, “Crystalline forms of a biphenyl compound” (THERAVANCE BIOPHARMA R&D IP, LLC, priority 2005, dated 2022).

The conditions of series [1]: DMS trace.
Method: A dynamic moisture sorption (DMS) assessment (also known as a moisture sorption-desorption profile) was performed using a VTI atmospheric microbalance, SGA-100 system (VTI Corp., Hialeah, Fla. 33016). A sample size of approximately 10 mg was used and the humidity was set at the ambient value at the start of the analysis. A typical DMS analysis consisted of three scans: ambient to 2% relative humidity (RH), 2% RH to 90% RH, 90% RH to 5% RH at a scan rate of 5% RH/step. The mass was measured every two minutes and the RH was changed to the next value (+/−5% RH) when the mass of the sample was stable to within 0.01% for 5 consecutive points.
The conditions of series [2]: six weeks at −20° C. (closed) and 40° C./75% RH (open and closed). Here is the method:
At specific intervals, the entire contents of a representative vial was analyzed by the following HPLC method: […]

For series [3] the following is noted: pH 5. Here is the method:
A solution was prepared with 0.5 mg/mL freebase equivalents (using a crystalline diphosphate salt prepared as described in Example 3) in 10 mM citrate buffered normal saline, pH 5. […] Less than 0.5% degradation was observed after storage for one month at 40° C./75% RH.

The conditions of series [4]: DSC trace, 10° C./min. How it is done: Differential scanning calorimetry (DSC) was performed using a TA Instruments Model Q-10 module with a Thermal Analyst controller. Data were collected and analyzed using TA Instruments Thermal Solutions software. A sample of about 1-4 mg was accurately weighed into an aluminum pan with lid. The sample was evaluated using a linear heating ramp of 10° C./min from ambient temperature to approximately 300° C. The DSC cell was purged with dry nitrogen during use.

Turning to `CN(CCN1CCC(OC(=O)Nc2ccccc2-c2ccccc2)CC1)C(=O)c1ccc(CN2CCC(C(N)=O)CC2)cc1.O=S(=O)(O)O` [Example 5, Crystalline Monosulfate Salt of Biphenyl-2-ylcarbamic Acid 1-(2-{[4-(4-Carbamoylpiperidin-1-ylmethyl)benzoyl]methylamino}ethyl)piperidin-4-yl Ester], in series [1], the “sorption/desorption profile and hygroscopicity” value is listed as “reversible sorption/desorption profile with low hygroscopicity”; the “weight gain when exposed to 2-90% RH” value was 10%; the “weight gain in the humidity range of 40-75% RH” value (“weight gain … of 40-75% RH” below) was 1.8%.

As for `CN(CCN1CCC(OC(=O)Nc2ccccc2-c2ccccc2)CC1)C(=O)c1ccc(CN2CCC(C(N)=O)CC2)cc1.O=P(O)(O)O.O=P(O)(O)O` [Example 3, Crystalline Diphosphate Salt of Biphenyl-2-ylcarbamic Acid 1-(2-{[4-(4-Carbamoylpiperidin-1-ylmethyl)benzoyl]methylamino}ethyl)piperidin-4-yl Ester], the “solid state stability: change in chemical purity” value in series [2] was “no detectable change in chemical purity”. Also, the “degradation of solution after storage” value in series [3] (0.5 mg/mL freebase equivalents in 10 mM citrate buffered normal saline, one month at 40° C./75% RH) is recorded as “Less than 0.5%”. In series [3] (10 mM citrate buffered normal saline), the “solubility of the crystalline salt” value is on record as “greater than 40 mg/mL of freebase equivalent”. In addition, the “temperature below which no thermal decomposition occurs” value in series [4] is at least 150 °C. In series [1], the “sorption/desorption profile and hygroscopicity” value is on record as “reversible sorption/desorption profile with low hygroscopicity”; the “weight gain when exposed to 2-90% RH” value is 3.3%; the “weight gain … of 40-75% RH” value is recorded as 0.6%.

In the case of `CN(CCN1CCC(OC(=O)Nc2ccccc2-c2ccccc2)CC1)C(=O)c1ccc(CN2CCC(C(N)=O)CC2)cc1` [Example 11, Crystalline Freebase Biphenyl-2-ylcarbamic Acid 1-(2-{[4-(4-Carbamoylpiperidin-1-ylmethyl)benzoyl]methylamino}ethyl)piperidin-4-yl Ester (Form II)], the “temperature below which no thermal decomposition occurs” value in series [4] was at least 75 °C. In addition, in series [1], the “sorption/desorption profile and hygroscopicity” value was “reversible sorption/desorption profile with low hygroscopicity”; the “weight gain when exposed to 2-90% RH” value was 9%; the “weight gain … of 40-75% RH” value amounted to 1.3%.

For the compound `CN(CCN1CCC(OC(=O)Nc2ccccc2-c2ccccc2)CC1)C(=O)c1ccc(CN2CCC(C(N)=O)CC2)cc1.O=C(O)C(=O)O.O=C(O)C(=O)O` [Example 7, Crystalline Dioxalate Salt of Biphenyl-2-ylcarbamic Acid 1-(2-{[4-(4-Carbamoylpiperidin-1-ylmethyl)benzoyl]methylamino}ethyl)piperidin-4-yl Ester], in series [1], the “sorption/desorption profile and hygroscopicity” value is given as “reversible sorption/desorption profile with low hygroscopicity”; the “weight gain when exposed to 2-90% RH” value is on record as 5.3%; the “weight gain … of 40-75% RH” value turned out to be 1.1%.

Turning to `CN(CCN1CCC(OC(=O)Nc2ccccc2-c2ccccc2)CC1)C(=O)c1ccc(CN2CCC(C(N)=O)CC2)cc1` [Example 10, Crystalline Freebase Biphenyl-2-ylcarbamic Acid 1-(2-{[4-(4-Carbamoylpiperidin-1-ylmethyl)benzoyl]methylamino}ethyl)piperidin-4-yl Ester (Form I)], in series [4], the “temperature below which no thermal decomposition occurs” value was at least 80 °C. In addition, in series [1], the “sorption/desorption profile and hygroscopicity” value is “reversible sorption/desorption profile with low hygroscopicity”; the “weight gain when exposed to 2-90% RH” value is recorded as 10%; the “weight gain … of 40-75% RH” value is listed as 1.2%.
